Assay results reported in publication PMC5201116, “Bioactive Flavonoids and Catechols as Hif1 and Nrf2 Protein Stabilizers - Implications for Parkinson’s Disease” (Aging and Disease, 2016).
Where two headings read alike, the source gives them in different places.

Legend:
[1] = Iron binding constant, calcein displacement assay; assay type: physicochemical; settings: calcein displacement
Description: Calcein displacement assay in the presence of varied concentrations of flavonoids and catechols has been used. Calcein release from its complex with iron was monitored by fluorescence as described in [26].

[2] = system: HIF1 ODD-luc reporter (SH-SY5Y cell line); test: HIF1 ODD-luc reporter assay; assay type: cell-based; settings: for ODD-luc fold activation / fold induction at 10 µM: at 10 µM, 3 h incubation; for fold induction at 10 µM: Homo sapiens, SH-SY5Y, 3 h, read-out: ODD-luc fold activation
Protocol: (§1) SH-SY5Y cell lines stably expressing HIF1 ODD-luc or Neh2-luc reporters were grown in the DMEM/F12 supplemented with GlutaMAX (Thermo Fisher Scientific) containing 10% FBS, 100 U/ml penicillin, and 100 μg/ml streptomycin and plated into 384-well white flat-bottom plates at 7,000 cell/well in 30 µl serum and incubated overnight at 37°C, 5% CO2. The next day compounds were added to a final concentration of 10 µM and the plates were incubated for 3 hours at 37°C. Reporter activation after 3 h incubation with the studied compound was compared to that for ciclopirox (HIF1 ODD-luc reporter) or TBHQ (Neh2-luc reporter), taken as 100%. Luciferase reporter activity was measured with a SteadyGlo reagent from Promega providing stable reading for 1 h.
(§2) Cells were plated at the density of 25,000 cell per well using a WellMate multichannel dispenser from Matrix (Thermo Fisher Scientific, Waltham, MA) and grown overnight on DMEM/F12+GlutaMAX (100 µl per well). Then an inhibitor was added, and the plates were incubated for a fixed time interval; the medium was removed, cells lysed, and luciferase activity was measured on a SpectraMax M5e platereader (Molecular Devices, Sunnyvale, CA) with BrightGlo™ reagent (Promega, Madison, WI). The reporter activation was normalized to the background luminescence. The effect of 0.5 mM N-acetylcysteine (NAC) was studied by simultaneous addition of 5 µL of 10 mM stock of NAC in water and 2 µL of 50x stock solutions of a flavonoid in DMSO.

[3] = system: HRE-luciferase reporter (HT22 hippocampal cell line); test: HRE-luc reporter assay; assay type: cell-based; settings: for HRE-luc fold activation / fold induction at 10 µM: at 10 µM; for fold induction at 10 µM: Mus musculus, HT-22, 3 h, read-out: HRE-luc fold activation
Description: A promoter-reporter construct that contained 68 bp of a known hypoxia and HIF-1 regulated gene, enolase, containing a wild type hypoxia response element (HRE, 5’-RCTGT-3’), is a widely used approach for screening for HIF activators of different mechanism of action. A cell-based assay with HRE-luciferase reporter system is based on transfected immortalized hippocampal cell line (HT22) and allows screening for a broad spectrum of compounds that include: activators of HIF transcription; activators of HIF binding to HRE; and effectors of HIF protein stability (PHD inhibitors, pVHL & proteasome inhibitors). The assay was performed the same way as for HIF ODD-luc reporter except the cells were plated at the density of 10,000 cell per well and incubated overnight.

[4] = system: Neh2-luc reporter (SH-SY5Y cell line); test: Neh2-luc reporter assay; assay type: cell-based; settings: for EC50: Neh2-luc
Protocol: as §1, §2

[5] = parameters: method as in PMID 17112238; settings: cited from earlier work

Iron complex Diss. Const [1]	Compound	ODD-luc fold activation [2]	HRE-luc fold activation [3]	Neh2-luc fold activation ([4]; at 10 µM, 3 h incubation)	fold induction at 10 µM [3]	other results
4.0 ± 0.4 µM	COc1ccc(-c2oc3ccccc3c(=O)c2O)cc1 [compound 4, 3-Hydroxy-4'-methoxy-]	–	–	–	–	–
5.0 ± 0.5 µM	COc1ccc2c(=O)c(O)c(-c3ccccc3)oc2c1 [compound 5, 3-Hydroxy-7-methoxy-]	Inactive	Inactive	Inactive	–	Iron complex Diss. Const ([1]; listed as 3-hydroxy-7-methoxyflavone): ca. 5 µM
–	COc1ccc2c(=O)c(OC)c(-c3ccccc3)oc2c1 [compound 6, 3,7-Dimethoxy-]	Inactive	inactive	Inactive	–	–
2.5 ± 0.3 µM	O=c1c(O)c(-c2ccc(O)cc2O)oc2cc(O)cc(O)c12 [compound 12, Morin]	Inactive	–	Inactive	1.3 ± 0.2	EHOMO [5]: -8.81 eV; Neh2-luc fold activation ([4]; at 10 µM, 3 h incubation, listed as morin): completely inactive
2.0 ± 0.2 µM	O=c1c(O)c(-c2cc(O)c(O)c(O)c2)oc2cc(O)cc(O)c12 [compound 13, Myricetin]	–	–	–	2 ± 0.2	EHOMO [5]: -8.80 eV; fold induction at 10 µM [2]: 1.3 ± 0.2; EC50 ([4]; Homo sapiens, SH-SY5Y): 2 µM; fold induction at 10 µM ([4]; Homo sapiens, SH-SY5Y, at 10 µM, 3 h incubation, read-out: Neh2-luc fold activation): 25 ± 3
Inactive	O=c1cc(-c2ccccc2)oc2cccc(O)c12 [compound 14, 5-hydroxyflavone]	Inactive	Inactive	Inactive	–	Iron complex Diss. Const ([1]; listed as 5-hydroxyflavone): does not bind iron in solution; EHOMO [5]: -9.12 eV
Inactive	COc1cc(C)c2c(=O)cc(-c3ccccc3)oc2c1 [compound 21, Methoxyvone]	Inactive	–	Inactive	3.2 ± 0.35	–
–	O=c1c(-c2ccc(O)cc2)coc2cc(O)cc(O)c12 [compound 24, 5-Hydroxy-daidzein]	–	Inactive	–	–	–
Inactive	O=c1c(-c2ccc(O)cc2)coc2cc(O)ccc12 [compound 26, Daidzein]	Inactive	Inactive	Inactive	–	ODD-luc fold activation ([2]; listed as daidzein): did not cause any activation effect; Neh2-luc fold activation ([4]; at 10 µM, 3 h incubation, listed as daidzein): not
2.5 ± 0.3 µM	N[C@H](Cc1ccc(O)c(O)c1)C(=O)O [compound 30, 3,4-Dihydroxy-D-phenylalanine]	Inactive	Inactive	Inactive	–	EC50 ([4]; Homo sapiens, SH-SY5Y): 20 µM
1.5 ± 0.3 µM	O=C(NO)c1ccc(O)c(O)c1 [compound 33, 3,4-Dihydroxy-benzohydroxamate]	–	–	Inactive	–	ODD-luc: concentration above which active [2]: Active above 100 µM; ODD-luc: concentration above which active ([2]; listed as Didox): above 100 µM; HRE-luc: concentration above which active [3]: Active above 100 µM; EC50 [4]: 100 µM
0.05 ± 0.01 µM	O=C(O)CN(CC(=O)O)Cc1cc2c(cc1O)Oc1cc(O)c(CN(CC(=O)O)CC(=O)O)cc1C21OC(=O)c2ccccc21 [compound 34, Calcein, reference compound]	–	–	Inactive	1.7 ± 0.2	fold induction at 10 µM [2]: 2 ± 0.25

Compound	Iron complex Diss. Const [1]	ODD-luc fold activation [2]	HRE-luc fold activation [3]	Neh2-luc fold activation ([4]; at 10 µM, 3 h incubation)	fold induction at 10 µM [3]	other results
CC(C)Oc1ccc2c(=O)c(-c3ccccc3)coc2c1 [compound 22, Ipriflavone]	Inactive	Inactive	–	Inactive	2.5 ± 0.3	–
O=c1c(-c2ccc(O)cc2)coc2cc(O)cc(O)c12 [compound 23, Genistein]	Inactive	Inactive	–	Inactive	1.5 ± 0.2	–
O=c1c(-c2ccc(O)cc2)coc2c(O)c(O)ccc12 [compound 25, 8-Hydroxy-daidzein]	1.5 ± 0.3 µM	Inactive	Inactive	Inactive	–	–
